This note sets out measurements from ChEMBL document CHEMBL1155350, “Antitubercular activity of alpha,omega-diaminoalkanes, H2N(CH2)nNH2” (Bioorg Med Chem Lett, 2009).

Data set [1] can be described thus: Cytotoxicity against mouse J774 macrophage assessed as cell viability at 10 ug/mL after 48 hrs by MTT assay. The note with it: J774 macrophage cells, read-out: Activity. The format is cell-based. For orientation: Tetrazolium dyes change colour on reduction, which living cells bring about.
Data set [2] deals with Mycobacterium tuberculosis. Kind of data set: Antimicrobial activity against Mycobacterium tuberculosis H37Rv ATCC 27294 assessed as minimum inhibitory concentration […] by micro plate Alamar blue assay. It counts as functional. (In general: Alamar Blue is a resazurin reagent that responds to reducing activity.)
Data set [3] is described as follows: Cytotoxicity against Mycobacterium bovis Bacillus Calmette-Guerin infected mouse J774 macrophage assessed as cell viability at 100 ug/mL after 48 hrs by MTT assay. The format is cell-based. The note with it: J774 macrophage cells infected with Mycobacterium bovis BCG, read-out: Activity.
The nature of data set [4]: Cytotoxicity against mouse J774 macrophage assessed as cell viability at 1 ug/mL after 48 hrs by MTT assay. The format is cell-based. The note with it: J774 macrophage cells, read-out: Activity.
Data set [5] can be described thus: Cytotoxicity against Mycobacterium bovis Bacillus Calmette-Guerin infected mouse J774 macrophage assessed as cell viability at 1 ug/mL after 48 hrs by MTT assay. The format is cell-based. The note with it: J774 macrophage cells infected with Mycobacterium bovis BCG, read-out: Activity.
The nature of data set [6]: Cytotoxicity against mouse J774 macrophage assessed as cell viability at 100 ug/mL after 48 hrs by MTT assay. The note with it: J774 macrophage cells, read-out: Activity. The format is cell-based.
The nature of data set [7]: Cytotoxicity against Mycobacterium bovis Bacillus Calmette-Guerin infected mouse J774 macrophage assessed as cell viability at 10 ug/mL after 48 hrs by MTT assay. It counts as cell-based. The note with it: J774 macrophage cells infected with Mycobacterium bovis BCG, read-out: Activity.

Each structure is given as a SMILES string. In brackets after ≈: the same amount, converted by molar mass. Activity calls are given as the source filed them. No cut-off for these calls is given here.

Broadly, the MIC is the lowest concentration found to suppress growth. Take `NCCN` [ETHYLENEDIAMINE]: the viability at 48 h, 10 ug/mL was found to be 100% in data set [1] and 23% in data set [7]. The MIC entry in data set [2] was “inactive”. Moreover, the results for the viability at 48 h, 100 ug/mL in data set [3] and in data set [6] were 29% and 100%, respectively. In addition, the values for the viability at 48 h, 1 ug/mL in data set [4] and in data set [5] were 100% and 35%, respectively.
For the compound `NCCCCCN`, the viability at 48 h, 10 ug/mL in data set [1] and in data set [7] was 100% each time. In addition, the MIC entry in data set [2] is “inactive”. In addition, the viability at 48 h, 100 ug/mL in data set [3] is 98%; in data set [6], 100%. The viability at 48 h, 1 ug/mL in data set [4] and in data set [5] was 100% in each case.
Consider `NCCCCCCCCCN`, for which the viability at 48 h, 10 ug/mL in data set [1] and in data set [7] was 100% in each case. The minimum inhibitory concentration (MIC) in data set [2] came to 3.12 µg/mL (≈ 19.7 µM). The viability at 48 h, 100 ug/mL came out at 71% in data set [3] and 100% in data set [6]. Moreover, the viability at 48 h, 1 ug/mL in data set [4] and in data set [5] was 100% throughout.
On to `NCCCN`, for which the viability at 48 h, 10 ug/mL in data set [1] was 100%; in data set [7], 94%. Besides, the MIC entry in data set [2] was “inactive”. Further, the viability at 48 h, 100 ug/mL in data set [3] was found to be 89%; in data set [6], 100%. The viability at 48 h, 1 ug/mL in data set [4] and in data set [5] was 100% throughout.
On to `NCCCCCCCN`, for which the viability at 48 h, 10 ug/mL worked out at 100% in data set [1] and 78% in data set [7]. Moreover, in data set [2], the MIC result was “inactive”. Moreover, the viability at 48 h, 100 ug/mL amounted to 70% in data set [3] and 100% in data set [6]. Further, the viability at 48 h, 1 ug/mL in data set [4] stood at 100%; in data set [5], 79%.
For the compound `NCCCCCCCCCCCCN`, the viability at 48 h, 10 ug/mL in data set [1] turned out to be 100%; in data set [7], 49%. Also, the MIC in data set [2] amounted to 2.5 µg/mL (≈ 12.5 µM). Also, the figures for the viability at 48 h, 100 ug/mL in data set [3] and in data set [6] were 38% and 100%, respectively. Also, the viability at 48 h, 1 ug/mL came to 100% in data set [4] and 56% in data set [5].
Turning to `NCCCCN` [PUTRESCINE], the viability at 48 h, 10 ug/mL is 100% in data set [1] and 90% in data set [7]. Besides, in data set [2], the MIC entry was “inactive”. The viability at 48 h, 100 ug/mL stood at 82% in data set [3] and 100% in data set [6]. Moreover, the viability at 48 h, 1 ug/mL in data set [4] and in data set [5] was 100% each time.
With `NCCCCCCN`, the viability at 48 h, 10 ug/mL worked out at 100% in data set [1] and 92% in data set [7]. Also, the MIC result in data set [2] is “inactive”. Besides, the figures for the viability at 48 h, 100 ug/mL in data set [3] and in data set [6] were 76% and 100%, respectively. The viability at 48 h, 1 ug/mL worked out at 100% in data set [4] and 98% in data set [5].
`NCCCCCCCCCCN`: the figures for the viability at 48 h, 10 ug/mL in data set [1] and in data set [7] were 100% and 34%, respectively. For the same compound, the MIC in data set [2] amounted to 3.12 µg/mL (≈ 18.1 µM). Also, the viability at 48 h, 100 ug/mL in data set [3] was found to be 42%; in data set [6] it was 94%. In addition, the viability at 48 h, 1 ug/mL in data set [4] turned out to be 100%; in data set [5], 56%.
For `NCCCCCCCCCCCN`, the results for the viability at 48 h, 10 ug/mL in data set [1] and in data set [7] were 100% and 53%, respectively. In addition, the MIC in data set [2] came to 3.12 µg/mL (≈ 16.7 µM). For the same compound, the viability at 48 h, 100 ug/mL in data set [3] came out at 40%; in data set [6] it was 100%. Further, the viability at 48 h, 1 ug/mL in data set [4] came to 100%; in data set [5], 58%.
On to `NCCCCCCCCN` [DIAMINOOCTANE], for which the viability at 48 h, 10 ug/mL worked out at 100% in data set [1] and 64% in data set [7]. In data set [2], the MIC entry was “inactive”. In addition, the values for the viability at 48 h, 100 ug/mL in data set [3] and in data set [6] were 64% and 95%, respectively. Besides, the viability at 48 h, 1 ug/mL in data set [4] turned out to be 100%; in data set [5], 68%.
With `CC[C@@H](CO)NCCN[C@@H](CC)CO` [ETHAMBUTOL], the viability at 48 h, 10 ug/mL in data set [1] worked out at 93%; in data set [7], 88%. The viability at 48 h, 100 ug/mL in data set [3] was determined as 85%; in data set [6], 82%. Also, the viability at 48 h, 1 ug/mL came out at 100% in data set [4] and 92% in data set [5].
